Substitutions are numbered along the chain they refer to.
Assays:
Experiment in all cases: competition with [3H]-mesulergine, HEK membranes
Format in all cases: binding
[1] = molecular target: T1, human 5-HT2C-INI (WT) receptor (Homo sapiens, UniProt P28335)
T1 sequence (P28335 33-458): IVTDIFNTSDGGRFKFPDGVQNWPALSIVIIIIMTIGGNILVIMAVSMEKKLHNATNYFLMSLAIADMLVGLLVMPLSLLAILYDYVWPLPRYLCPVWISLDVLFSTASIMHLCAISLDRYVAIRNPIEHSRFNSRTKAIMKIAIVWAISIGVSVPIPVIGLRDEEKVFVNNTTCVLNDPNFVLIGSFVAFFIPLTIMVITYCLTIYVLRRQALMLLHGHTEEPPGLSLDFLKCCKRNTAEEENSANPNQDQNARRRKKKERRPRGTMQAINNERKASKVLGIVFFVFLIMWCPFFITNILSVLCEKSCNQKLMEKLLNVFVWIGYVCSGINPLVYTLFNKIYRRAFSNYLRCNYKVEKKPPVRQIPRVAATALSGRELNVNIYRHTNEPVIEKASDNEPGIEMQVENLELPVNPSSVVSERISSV

[2] = molecular target: T2, human 5-HT2C-INI (WT) receptor (Homo sapiens, UniProt P28335, S138A)
T2 sequence (P28335 33-458 S138A): T1 sequence (P28335 33-458) with S106A

[3] = molecular target: T3, human 5-HT2C-INI (WT) receptor (Homo sapiens, UniProt P28335, Y358A)
T3 sequence (P28335 33-458 Y358A): T1 sequence (P28335 33-458) with Y326A

Row | SMILES | Ki [1] [µM] | Ki [2] [µM] | Ki [3] [µM]
1 | NC1Cc2ccccc2C(c2ccccc2)C1 (racemic) [NH2-PAT] | 1.55 | 9.04 | 1.35
2 | NCCc1c[nH]c2ccccc12 [Tryptamine] | 0.0571 | 1.51 | 0.298

From paper PMC3224194 (European journal of pharmacology, 2011)
